Data taken from paper PMC11830572, “5‐hydroxymethylcytosine features of portal venous blood predict metachronous liver metastases of colorectal cancer and reveal phosphodiesterase 4 as a therapeutic target” (Clinical and Translational Medicine, 2025).
Entries after “also recorded” stand apart in the source; their conditions may differ. Read-outs that look alike come from different tables or passages of the source.

What was measured:
[1] = tested on: HIF-1α, CCN2, p-AKT and p-ERK in MC38 cells; assay: Western blot / immunofluorescence / mRNA of HIF-1α, CCN2, p-AKT, p-ERK in MC38 cells; type: cell-based, murine; details: for mRNA and protein levels of CCN2: HIF-1α inhibitor treatment
Description: Western blot was performed using the following antibodies: anti‐phospho‐ERK (CST, #4370), anti‐ERK (CST, #4695), anti‐phospho‐AKT (CST, #4060), anti‐AKT (CST, #9272), anti‐beta‐tubulin (CST, #86298), anti‐PDE4D (Abcam, ab171750) and anti‐CCN2 (Abcam, ab6992). […] The blots were blocked with 5% non‐fat milk and incubated overnight at 4°C with the primary antibody. Afterward, the blots were incubated for 1 h with the secondary antibody and subsequent imaging was carried out by BIO‐RAD Chemidoc MP imaging system. Relative protein levels were corrected for beta‐tubulin or beta‐actin.

MC38 cells [2] = assay: Transwell migration assay, MC38; type: cell-based, murine
Description: To access cell migration, 1.0 × 10^5 cells were seeded into the 8‐µm‐pore upper chambers in serum‐free RPMI1640 and incubated in RPMI1640 with 10% FBS of the lower chamber of 12‐well plates (Corning Star). After normal culture for 24 h, cells were permeabilised with 100% methanol and then stained with .1% crystal violet.

PDE4 = PDE4 (Homo sapiens, UniProt Q08499); assay: In vitro enzymatic activity assay: inhibitory activities of 2-arylbenzofurans towards PDE4 (3H-cAMP substrate); type: biochemical; details: for inhibition at 0.1 µM: read-out: PDE4 inhibition 100 nM
Sequence of PDE4 (Q08499 388-715): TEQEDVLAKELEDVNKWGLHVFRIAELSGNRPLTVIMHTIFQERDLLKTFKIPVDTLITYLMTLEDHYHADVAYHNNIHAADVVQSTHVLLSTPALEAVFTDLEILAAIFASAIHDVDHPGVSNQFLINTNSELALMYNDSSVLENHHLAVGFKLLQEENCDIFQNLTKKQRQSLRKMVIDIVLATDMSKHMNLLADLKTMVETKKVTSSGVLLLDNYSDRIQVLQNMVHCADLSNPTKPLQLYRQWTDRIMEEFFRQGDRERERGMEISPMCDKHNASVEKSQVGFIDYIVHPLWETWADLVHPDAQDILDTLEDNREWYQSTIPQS
Description: Protocols for the expression and enzyme assay of PDE isoforms were similar to our previous works.[98], [99], [100] Briefly, the recombinant plasmid was transformed into Escherichia coli competent cells BL21 (CodonPlus) and cultured in LB medium at 37°C until the optical density at 600 nm (A600) reached .6–.8. Induction of protein expression was achieved by adding .1 mM isopropyl β‐D‐thiogalactopyranoside (IPTG), followed by further incubation at 15°C for 24 h. The recombinant proteins were then purified using a Ni‐NTA column (Qiagen), a Q column (GE Healthcare), and a Superdex 100 column (GE Healthcare), and Superdex 100 column (GE Healthcare). The enzymatic activities of PDEs were measured by using ^3H‐cAMP or ^3H‐cGMP (GE Healthcare) as substrates. The assay buffer contains 20 mM Tris‐HCl (pH 7.5), 10 mM MgCl2 or 4.0 mM MnCl2, 1.0 mM dithiothreitol, and 10–30 nM ^3H‐cAMP or ^3H‐cGMP (20 000–30 000 cpm/assay). The reaction was conducted at room temperature for 15 min and then terminated by adding .2 M ZnSO4. The reaction products, 3H‐AMP or 3H‐GMP, were precipitated with .2 N Ba(OH)2, while unreacted 3H‐cAMP or 3H‐cGMP remained in the supernatant. […] For the measurement of IC50, eight concentrations at least were used and IC50 values were calculated by the nonlinear regression.

PDE1B (10-487) = PDE1B (10-487) (Homo sapiens, UniProt Q01064); assay: biochemical
Sequence of PDE1B (10-487) (Q01064 10-487): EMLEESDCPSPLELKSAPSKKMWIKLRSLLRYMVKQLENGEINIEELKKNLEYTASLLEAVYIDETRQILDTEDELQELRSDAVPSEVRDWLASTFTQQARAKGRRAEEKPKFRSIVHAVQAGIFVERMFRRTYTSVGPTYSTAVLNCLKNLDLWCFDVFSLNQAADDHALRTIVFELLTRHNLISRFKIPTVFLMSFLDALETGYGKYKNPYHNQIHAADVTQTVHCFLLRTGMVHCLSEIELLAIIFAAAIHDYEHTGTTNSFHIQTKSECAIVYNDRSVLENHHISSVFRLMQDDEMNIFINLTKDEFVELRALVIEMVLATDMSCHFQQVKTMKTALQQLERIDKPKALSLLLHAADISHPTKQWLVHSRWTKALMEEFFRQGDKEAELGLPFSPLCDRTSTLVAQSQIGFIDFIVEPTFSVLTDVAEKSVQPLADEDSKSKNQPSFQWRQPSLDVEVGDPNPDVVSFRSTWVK
Description: (§2) Briefly, the recombinant plasmid was transformed into Escherichia coli competent cells BL21 (CodonPlus) and cultured in LB medium at 37°C until the optical density at 600 nm (A600) reached .6–.8. Induction of protein expression was achieved by adding .1 mM isopropyl β‐D‐thiogalactopyranoside (IPTG), followed by further incubation at 15°C for 24 h. The recombinant proteins were then purified using a Ni‐NTA column (Qiagen), a Q column (GE Healthcare), and a Superdex 100 column (GE Healthcare), and Superdex 100 column (GE Healthcare). The enzymatic activities of PDEs were measured by using ^3H‐cAMP or ^3H‐cGMP (GE Healthcare) as substrates. The assay buffer contains 20 mM Tris‐HCl (pH 7.5), 10 mM MgCl2 or 4.0 mM MnCl2, 1.0 mM dithiothreitol, and 10–30 nM ^3H‐cAMP or ^3H‐cGMP (20 000–30 000 cpm/assay). The reaction was conducted at room temperature for 15 min and then terminated by adding .2 M ZnSO4. The reaction products, 3H‐AMP or 3H‐GMP, were precipitated with .2 N Ba(OH)2, while unreacted 3H‐cAMP or 3H‐cGMP remained in the supernatant. The radioactivity of the supernatant was measured in 2.5 mL of Ultima Gold liquid scintillation cocktail (Fisher Scientific) using a PerkinElmer 2910 liquid scintillation counter. For the measurement of IC50, eight concentrations at least were used and IC50 values were calculated by the nonlinear regression.

[3] = Safety in liver metastasis model mice (body weight curve, H&E of heart, lung, kidney); type: in vivo
Description: (§1) A murine colon cancer cell line (MC38) stably transfected with the firefly luciferase (Luc) gene (Addgene plasmid #17477) was generated. To establish a model of liver metastases mice were anaesthetised with ketamine. Then the spleens were exposed to allow direct intrasplenic injections of 5 × 10^5 Luc‐labelled MC38 (MC38‐Luci) cells in 50 µL 1 mM EDTA in PBS. Mice were sacrificed 18 days after injection of the tumour cells, then spleen and liver were analysed immediately. For ex vivo imaging, female mice were administered by intraperitoneal injection with d‐luciferin (150 mg/kg; Perkin Elmer). Ten minutes later, mice were sacrificed, the livers were collected and […] the ex vivo IVIS Lumina III system (Perkin Elmer). Collected images were analysed using Living Image 4.3.1 software (Perkin Elmer): ROIs were drawn around each liver and radiant efficiency calculated.

PDE7A1 (130-482) = PDE7A1 (130-482) (Homo sapiens, UniProt Q13946); assay: In vitro enzymatic activity assay, PDE selectivity panel: PDE7A1; type: biochemical
Sequence of PDE7A1 (130-482) (Q13946 130-482): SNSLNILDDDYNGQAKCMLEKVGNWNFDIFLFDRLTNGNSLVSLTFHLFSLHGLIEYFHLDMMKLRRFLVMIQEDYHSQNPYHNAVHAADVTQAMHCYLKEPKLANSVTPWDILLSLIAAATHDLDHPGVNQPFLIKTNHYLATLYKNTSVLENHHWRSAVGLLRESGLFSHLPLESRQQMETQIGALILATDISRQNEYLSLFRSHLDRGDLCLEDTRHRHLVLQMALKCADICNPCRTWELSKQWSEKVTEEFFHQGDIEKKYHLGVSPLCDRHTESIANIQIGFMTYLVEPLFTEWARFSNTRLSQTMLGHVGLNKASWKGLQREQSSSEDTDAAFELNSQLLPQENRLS
Description: as §2

[4] = 2-week repeated administration in rats: overall long-term safety
PDE3A (679-1087) = PDE3A (679-1087) (Homo sapiens, UniProt Q14432); assay: biochemical
Sequence of PDE3A (679-1087) (Q14432 679-1087): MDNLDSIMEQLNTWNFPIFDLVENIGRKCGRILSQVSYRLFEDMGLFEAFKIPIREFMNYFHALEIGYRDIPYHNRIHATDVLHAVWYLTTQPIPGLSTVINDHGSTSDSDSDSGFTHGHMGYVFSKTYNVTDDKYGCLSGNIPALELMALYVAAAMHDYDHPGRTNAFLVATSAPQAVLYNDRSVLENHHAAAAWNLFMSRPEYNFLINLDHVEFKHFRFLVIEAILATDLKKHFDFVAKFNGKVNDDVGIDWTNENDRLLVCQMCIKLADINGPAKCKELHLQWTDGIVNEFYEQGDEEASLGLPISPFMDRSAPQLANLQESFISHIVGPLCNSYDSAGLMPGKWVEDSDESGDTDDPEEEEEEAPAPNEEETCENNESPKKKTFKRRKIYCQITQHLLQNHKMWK
Description: as §2

PDE5A1 (535-860) = PDE5A1 (535-860) (Homo sapiens, UniProt O76074); assay: In vitro enzymatic activity assay, PDE selectivity panel: PDE5A1; type: biochemical
Description: as §2

[5] = Emetic assay on beagle dogs; type: in vivo
Description: All animal care and experimental protocols were conducted in accordance with the Guide for the Care and Use of Laboratory Animals (National Institutes of Health Publication, revised 1996, no. 86‐23, Bethesda, MD) and were approved by the Institutional Animal Research Ethics Committee of Sun Yat‐Sen University. (IACUC numbers: […]‐2021‐000130). […] Animals are watched continuously for 180 min for the behaviour of retching, excessive salivation, and vomiting.

MC38 liver metastases = assay: Liver metastasis model, intrasplenic injection of MC38-Luc cells; type: in vivo, mice; details: for bioluminescence of mice in the liver: day 18
Description: as §1

MC38 cells [6] = assay: Cell viability assay (CCK8); type: cell-based, murine
Description: A total of 2000–5000 cells were seeded in 96‐well plates for an overnight culture. The medium was then replaced with fresh medium supplemented with varying concentrations of drugs. […]

PDE4D2 = tested on: PDE4D2; set-up: method as in PMID 22483586; details: cited from earlier work
PDE4B2 = tested on: PDE4B2; set-up: method as in PMID 22483586; details: cited from earlier work
MC38 cells [7] = assay: RNA sequencing of treated MC38 cells; type: cell-based, murine
Description: RNA integrity was assessed using the RNA Nano 6000 Assay Kit on the Bioanalyzer 2100 system (Agilent Technologies, CA, USA). Total RNA was used as input for RNA sample preparation. Briefly, mRNA was purified from total RNA using poly‐T oligo‐attached magnetic beads. Fragmentation was performed using divalent cations at elevated temperature in First Strand Synthesis Reaction Buffer (5X). First‐strand cDNA was synthesised using a random hexamer primer and M‐MuLV Reverse Transcriptase (RNase H‐). Second‐strand cDNA synthesis was then carried out using DNA Polymerase I and RNase H. The remaining overhangs were converted to blunt ends via exonuclease/polymerase activities. After adenylation of the 3′ ends of the DNA fragments, adaptors with a hairpin loop structure were ligated to prepare for hybridisation. To select cDNA fragments in the preferred size range of 370–420 bp, the library fragments were purified using the AMPure XP system (Beckman Coulter, Beverly, USA). PCR amplification was performed using Phusion High‐Fidelity DNA polymerase, universal PCR primers, and an index (X) primer. The PCR products were then purified again using the AMPure XP system, and the library quality was assessed on the Agilent Bioanalyzer 2100 system. […] After cluster generation, the library preparations were sequenced on the Illumina NovaSeq platform, generating 150 bp paired‐end reads.

MC38 cells [8] = assay: Wound healing scratch migration assay; type: cell-based, murine; details: 24 h and 48 h
Description: For migration assays (wound healing assays), cells were seeded in 6‐well plates and grown until confluence. Cells were scraped in each well, the medium was replaced with medium with 2% FBS to block cell proliferation. After 24 h or 48 h, the photographs of each well were obtained.

[9] = mice, MC38-Luc intrasplenic, two weeks of treatment

COc1cc2c(cc1O)CC[C@@H]1[C@@H]2CC[C@]2(C)[C@@H](O)CC[C@@H]12 [2‐MEOE2]
mRNA and protein levels of CCN2 [1]: significant decrease

C=C[C@@]1(C)CC(=O)[C@]2(O)[C@@]3(C)[C@@H](O)CCC(C)(C)[C@@H]3[C@H](O)[C@H](OC(C)=O)[C@@]2(C)O1 [FSK, forskolin]
levels of CCN2, p-AKT and p-ERK [1]: significantly inhibited
migration, transwell assay (MC38 cells [2]): quantitatively similar to those of roflumilast

O=S(=O)(NCCSSCCNS(=O)(=O)c1cc(Cl)ccc1Cl)c1cc(Cl)ccc1Cl [KC7F2]
mRNA and protein levels of CCN2 [1]: significant decrease

COc1cccc(Nc2cc(-c3cc4ccccc4o3)ccc2C(N)=O)c1 [L1]
inhibition at 1 µM (PDE4): 55.7%
inhibition at 0.1 µM (PDE4): 41.9%

COc1cccc(Nc2cc(-c3cc4ccc(O)cc4o3)ccc2C(N)=O)c1 [L2]
IC50 (PDE4): 181 ± 13 nM
inhibition at 1 µM (PDE4): 68.5%
inhibition at 0.1 µM (PDE4): 48.6%

COc1cccc(Nc2cc(-c3cc4cc(OC)ccc4o3)ccc2C(N)=O)c1 [L3]
inhibition at 1 µM (PDE4): 24.1%
inhibition at 0.1 µM (PDE4): 17%

COc1cccc(Nc2cc(-c3cc4cccc(OC)c4o3)ccc2C(N)=O)c1 [L4]
inhibition at 1 µM (PDE4): 59.5%
inhibition at 0.1 µM (PDE4): 28.9%

COc1cccc(Nc2cc(-c3cc4ccc(Cl)cc4o3)ccc2C(N)=O)c1 [L5]
inhibition at 1 µM (PDE4): 36.9%
inhibition at 0.1 µM (PDE4): 15.9%

COc1cccc(Nc2cc(-c3cc4cc(F)ccc4o3)ccc2C(N)=O)c1 [L6]
inhibition at 1 µM (PDE4): 55.5%
inhibition at 0.1 µM (PDE4): 30.3%

NC(=O)c1ccc(-c2cc3ccc(O)cc3o2)cc1Nc1cccc(Cl)c1 [L7]
IC50 (PDE4): 197 ± 37.4 nM
inhibition at 1 µM (PDE4): 77.5%
inhibition at 0.1 µM (PDE4): 44.1%

NC(=O)c1ccc(-c2cc3ccc(O)cc3o2)cc1Nc1cccc(F)c1 [L8]
inhibition at 1 µM (PDE4): 61.6%
inhibition at 0.1 µM (PDE4): 30.6%

NC(=O)c1ccc(-c2cc3ccc(O)cc3o2)cc1Nc1cc(F)cc(F)c1 [L9]
inhibition at 1 µM (PDE4): 65.8%
inhibition at 0.1 µM (PDE4): 39.1%

FC(F)Oc1ccc(-c2cc3ccccc3o2)cc1OCC1CC1 [L10]
inhibition at 1 µM (PDE4): 37.4%

Oc1ccc2cc(-c3ccc(OC(F)F)c(OCC4CC4)c3)oc2c1 [L11]
levels of CCN2, p-AKT and p-ERK [1]: significantly repressed
IC50 (PDE1B (10-487)): > 10000 nM
safety: body weight and H&E of heart, lung and kidney [3]: safety of compound L11 was observed; also recorded: could not induce weight loss or any major organ damage
IC50 (PDE7A1 (130-482)): 2290 nM
food intake, weight, haematology indicators and serum test indicators ([4]; 30 mg/kg or 100 mg/kg intraperitoneal injection for 2 weeks): no abnormal changes
adverse effects on body weight or other signs of overt toxicity ([4]; daily doses of up to 100 mg/kg for 2 weeks): did not cause any adverse effects
IC50 (PDE3A (679-1087)): > 10000 nM
IC50 (PDE5A1 (535-860)): 3000 nM
No. of animals with emesis/No. of test animals ([5]; 10 mg/kg po): 0/3
emetic activity ([5]; oral dose of 10 mg/kg): did not induce emetic effects
bioluminescence of mice in the liver (MC38 liver metastases): significant decrease
liver metastases (liver images and bioluminescence images) (MC38 liver metastases; [9]): significantly inhibit tumour metastases
metastatic areas in the liver (H&E staining) (MC38 liver metastases; mice, after treatment): significantly suppressed liver metastases
cell viability / growth (CCK8 assay) (MC38 cells [6]): significantly inhibit the growth
IC50 (MC38 cells [6]; Mus musculus, MC-38): ~20000 nM

FC(F)Oc1ccc(-c2cc3ccccc3o2)cc1OC1CCCC1 [L12]
IC50 (PDE4): 910 nM
inhibition at 1 µM (PDE4): 73.3%
inhibition at 0.1 µM (PDE4): 13.2%

Oc1ccc2cc(-c3ccc(OC(F)F)c(OC4CCCC4)c3)oc2c1 [L13]
IC50 (PDE4): 145 ± 2.3 nM
inhibition at 1 µM (PDE4): 92.2%
inhibition at 0.1 µM (PDE4): 42.7%

NC1(c2ccc(-c3nc4ccn5c(=O)[nH]nc5c4cc3-c3ccccc3)cc2)CCC1 [MK2206]
migration, transwell assay (MC38 cells [2]): significantly inhibit MC38 metastases

Oc1cc(O)cc(-c2cc3ccc(O)cc3o2)c1 [Moracin M]
IC50 (PDE4D2): 2900 nM
IC50 (PDE4B2): 4500 nM

COc1cccc(-c2cc(=O)c3ccccc3o2)c1N [PD98095]
migration, transwell assay (MC38 cells [2]): significantly inhibit MC38 metastases

O=C(Nc1c(Cl)cncc1Cl)c1ccc(OC(F)F)c(OCC2CC2)c1 [Roflumilast, roflumilast]
HIF-1α and CCN2 expression levels (western blot) ([1]; 24 h): inhibited
protein level of CCN2 (immunofluorescence) ([1]; 48 h): decreased significantly
migration, transwell assay (MC38 cells [2]; combined with siCCN2): could not inhibit tumour metastases
migration, transwell assay (MC38 cells [2]; combined with siHIF1A): Same result
expression of eight cell adhesion pathway genes (CCN2, LAMB3, EGFL7, EPHA8, COL7A1, AMIGO2, COL6A3, CDH26) (MC38 cells [7]): relatively low expression
No. of animals with emesis/No. of test animals ([5]; 1.0 mg/kg po): 3/3
bioluminescence of mice in the liver (MC38 liver metastases): significant decrease
liver metastases (liver images and bioluminescence images) (MC38 liver metastases; [9]): fewer metastatic lesions
metastasis sites, liver total flux (and liver weight), quantitative statistics (MC38 liver metastases; [9]): could inhibit liver metastasis
migration, scratch wound closure (MC38 cells [8]): significantly inhibited the migration
cell viability / growth (CCK8 assay) (MC38 cells [6]): less toxicity
